This note sets out measurements from patent US11028061B2, “Modulators of myocyte lipid accumulation and insulin resistance and methods of use thereof” (Sanford Burnham Prebys Medical Discovery Institute, priority 2015, dated 2021).

The test system of one test is primary human myotubes. In words: Fatty acid uptake (3H-oleate). As to conditions: 10 μM, 24 hours. Format: cell-based. Here is the method:
FIGS. 1A-1C show SBI-477 as a small molecule inhibitor of neutral lipid accumulation in human skeletal myotubes. […] Data is shown as percent of DMSO vehicle control. Representative of >5 experiments. FIGS. 1B and 1C show dose-dependent inhibition of myocyte TAG accumulation by SBI-477. FIG. 1B—primary human myotubes were incubated with the indicated concentrations of SBI-477, 1 μM triascin C, 1 μM A922500 (DGAT inhibitor) or vehicle control with 100 μM oleate for 24 hours. Fatty acid free bovine serum albumin (BSA) was included as non-lipid loading control. Bars represent mean triglyceride level normalized to total protein±SD. *p<0.001 vs. oleate/vehicle control by one-way ANOVA with Bonferroni post hoc test. FIG. 1C—primary human myotubes were incubated with 10 μM SBI-477 or vehicle control for 24 hours. Fatty acid (FA) uptake was measured as cellular uptake of 3H-oleate. Bars represent fatty acid uptake normalized to the vehicle control. FIGS. 1D-1F show the effect of SBI-477 on FAO rates in human skeletal myotubes. […] FAO rates were determined by 3H-palmitate oxidation (n=5). […] Total cellular triglyceride levels were determined following incubation with SBI-477 (10 μM) for 24 hours with etomoxir (50 μM) in the absence (FIG. 1E) or presence of 1 mM carnitine (FIG. 1F) (n=4). *p<0.05 vs. vehicle control.

The test system of the next test is MGAT1/2/3. As to the kind of experiment: Direct inhibition of MGAT1/2/3 activity. Format: biochemical. The following applies: data not shown.
For the next test, the target named is T1, MondoA (Homo sapiens, UniProt Q9HAP2).
T1 construct: Proteins were immunoprecipitated by using anti-MondoA (Bethyl Laboratories; catalog number A303-195A); endogenous in cells; host or cells: differentiated primary human skeletal myotubes
T1 sequence (Q9HAP2 2-919 limits assumed): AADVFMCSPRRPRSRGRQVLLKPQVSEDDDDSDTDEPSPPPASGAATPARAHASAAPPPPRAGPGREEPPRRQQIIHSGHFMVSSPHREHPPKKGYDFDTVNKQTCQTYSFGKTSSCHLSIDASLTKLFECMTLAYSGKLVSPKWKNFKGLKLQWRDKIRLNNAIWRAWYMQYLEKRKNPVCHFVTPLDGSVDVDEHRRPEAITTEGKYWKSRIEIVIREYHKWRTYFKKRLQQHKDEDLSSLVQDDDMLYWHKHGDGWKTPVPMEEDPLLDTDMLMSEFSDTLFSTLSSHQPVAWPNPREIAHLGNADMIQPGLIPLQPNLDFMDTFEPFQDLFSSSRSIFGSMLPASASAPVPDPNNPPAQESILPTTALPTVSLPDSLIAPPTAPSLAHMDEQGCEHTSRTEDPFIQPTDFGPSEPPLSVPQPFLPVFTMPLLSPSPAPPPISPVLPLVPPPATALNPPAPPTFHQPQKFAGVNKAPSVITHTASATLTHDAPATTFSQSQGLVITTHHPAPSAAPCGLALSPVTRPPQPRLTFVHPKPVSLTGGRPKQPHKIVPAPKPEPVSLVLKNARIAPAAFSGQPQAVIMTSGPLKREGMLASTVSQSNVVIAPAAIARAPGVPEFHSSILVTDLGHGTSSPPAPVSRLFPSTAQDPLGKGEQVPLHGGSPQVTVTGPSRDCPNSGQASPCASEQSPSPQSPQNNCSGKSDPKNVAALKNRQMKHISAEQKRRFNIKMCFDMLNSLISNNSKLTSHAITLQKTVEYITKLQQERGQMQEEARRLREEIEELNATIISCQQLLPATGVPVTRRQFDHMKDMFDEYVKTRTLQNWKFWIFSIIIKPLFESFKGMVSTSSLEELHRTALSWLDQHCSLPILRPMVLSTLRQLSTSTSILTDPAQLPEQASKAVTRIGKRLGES
In words: ChIP of MondoA occupation on TXNIP and ARRDC4 promoter ChoREs. As to conditions: human skeletal myotubes. The format is cell-based. The method, then:
ChIP assays were performed as previously described (Gan, et al., Genes Dev., 2011, 25(24):2619-2630). Briefly, differentiated human skeletal myotubes were cross-linked with 1% formaldehyde for 10 minutes at room temperature, and glycine was added to stop the cross-linking reaction. Cells were harvested and lysed. For chromatin fragmentation, sonication was performed using a Bioruptor (Diagenode). Proteins were immunoprecipitated by using anti-MondoA (Bethyl Laboratories; catalog number A303-195A) or IgG control (Sigma; catalog number 15006) overnight at 4° C. DNA fragments were purified using a QIAquick PCR purification kit (Qiagen) and quantified by a LightCycler® 480 Instrument II (Roche) with the specific primers listed in Table 1.

Take `COc1ccc(-c2csc(NC(=O)c3ccc(OCC(=O)N4CCOCC4)c(OC)c3)n2)cc1` [Cpd. 7, 3-methoxy-N-(4-(4-methoxyphenyl)thiazol-2-yl)-4-(2-morpholino-2-oxoethoxy)benzamide]: the “Cellular fatty acid uptake” value in the test with primary human myotubes is given as “not due to blocking cellular fatty acid uptake”. Also, the “Direct inhibition of MGAT1/2/3 activity” value in the test with MGAT1/2/3 was “not found that SBI-477 directly inhibits”. Also, the “Occupation by MondoA of ChoREs in TXNIP and ARRDC4 promoter regions” value at MondoA was “inhibited”.
